From patent US20220347175A1, “PYRIDAZINONE DERIVATIVE” (Sumitomo Dainippon Pharma Co., Ltd., priority 2018, published 2022)

What was measured:
[1] = target: T1, human Nav1.1 (Homo sapiens, UniProt P35498); assay: Amplification of Nav1.1-derived voltage-dependent sodium current (Nav1.1 current), cell line stably expressing human Nav1.1, automated patch clamp; type: cell-based
T1 construct: host or cells: HEK293
Method in brief: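 Automated whole-cell voltage-clamp recordings used HEK293 cells stably expressing human Nav1.1, keeping only cells with >500 pA current, with currents evoked by ramp voltage. Compounds were applied in extracellular fluid with 1% DMSO, and amplification (%) was computed from peak current or AUC after versus before addition.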

[2] = target: T2, human Nav1.5 (Homo sapiens, UniProt Q14524); assay: Amplification of Nav1.5-derived voltage-dependent sodium current (Nav1.5 current), cell line stably expressing human Nav1.5, automated patch clamp; type: cell-based
T2 construct: expressed in transfected cells; host or cells: CHO-K1 (T-REx System, ThermoFisher Scientific)

[3] = 10 μmol/L compound, change of the area under the curve of Nav1.1 current (Test Result 1)
[4] = 10 μmol/L compound, change of the area under the curve of Nav1.5 current (Test Result 1)
[5] = compound 1 μmol/L, HEK293 stably expressing human Nav1.1
[6] = compound 1 μmol/L, CHO-K1 stably expressing human Nav1.5
[7] = compound 1 μmol/L, HEK293 stably expressing human Nav1.1, read-out: Nav1.1 current amplification rate (%)
[8] = compound 1 μmol/L, CHO-K1 stably expressing human Nav1.5, read-out: Nav1.5 current amplification rate (%)
[9] = compound 3 μmol/L, HEK293 stably expressing human Nav1.1
[10] = compound 3 μmol/L, CHO-K1 stably expressing human Nav1.5
[11] = 10 μmol/L compound, change of the area under the curve of Nav1.1 current (Test Result 1), read-out: Nav1.1 current amplification rate (%)
[12] = 10 μmol/L compound, change of the area under the curve of Nav1.5 current (Test Result 1), read-out: Nav1.5 current amplification rate (%)

T2 sequence (Q14524 1-2015 isoform Q14524-2): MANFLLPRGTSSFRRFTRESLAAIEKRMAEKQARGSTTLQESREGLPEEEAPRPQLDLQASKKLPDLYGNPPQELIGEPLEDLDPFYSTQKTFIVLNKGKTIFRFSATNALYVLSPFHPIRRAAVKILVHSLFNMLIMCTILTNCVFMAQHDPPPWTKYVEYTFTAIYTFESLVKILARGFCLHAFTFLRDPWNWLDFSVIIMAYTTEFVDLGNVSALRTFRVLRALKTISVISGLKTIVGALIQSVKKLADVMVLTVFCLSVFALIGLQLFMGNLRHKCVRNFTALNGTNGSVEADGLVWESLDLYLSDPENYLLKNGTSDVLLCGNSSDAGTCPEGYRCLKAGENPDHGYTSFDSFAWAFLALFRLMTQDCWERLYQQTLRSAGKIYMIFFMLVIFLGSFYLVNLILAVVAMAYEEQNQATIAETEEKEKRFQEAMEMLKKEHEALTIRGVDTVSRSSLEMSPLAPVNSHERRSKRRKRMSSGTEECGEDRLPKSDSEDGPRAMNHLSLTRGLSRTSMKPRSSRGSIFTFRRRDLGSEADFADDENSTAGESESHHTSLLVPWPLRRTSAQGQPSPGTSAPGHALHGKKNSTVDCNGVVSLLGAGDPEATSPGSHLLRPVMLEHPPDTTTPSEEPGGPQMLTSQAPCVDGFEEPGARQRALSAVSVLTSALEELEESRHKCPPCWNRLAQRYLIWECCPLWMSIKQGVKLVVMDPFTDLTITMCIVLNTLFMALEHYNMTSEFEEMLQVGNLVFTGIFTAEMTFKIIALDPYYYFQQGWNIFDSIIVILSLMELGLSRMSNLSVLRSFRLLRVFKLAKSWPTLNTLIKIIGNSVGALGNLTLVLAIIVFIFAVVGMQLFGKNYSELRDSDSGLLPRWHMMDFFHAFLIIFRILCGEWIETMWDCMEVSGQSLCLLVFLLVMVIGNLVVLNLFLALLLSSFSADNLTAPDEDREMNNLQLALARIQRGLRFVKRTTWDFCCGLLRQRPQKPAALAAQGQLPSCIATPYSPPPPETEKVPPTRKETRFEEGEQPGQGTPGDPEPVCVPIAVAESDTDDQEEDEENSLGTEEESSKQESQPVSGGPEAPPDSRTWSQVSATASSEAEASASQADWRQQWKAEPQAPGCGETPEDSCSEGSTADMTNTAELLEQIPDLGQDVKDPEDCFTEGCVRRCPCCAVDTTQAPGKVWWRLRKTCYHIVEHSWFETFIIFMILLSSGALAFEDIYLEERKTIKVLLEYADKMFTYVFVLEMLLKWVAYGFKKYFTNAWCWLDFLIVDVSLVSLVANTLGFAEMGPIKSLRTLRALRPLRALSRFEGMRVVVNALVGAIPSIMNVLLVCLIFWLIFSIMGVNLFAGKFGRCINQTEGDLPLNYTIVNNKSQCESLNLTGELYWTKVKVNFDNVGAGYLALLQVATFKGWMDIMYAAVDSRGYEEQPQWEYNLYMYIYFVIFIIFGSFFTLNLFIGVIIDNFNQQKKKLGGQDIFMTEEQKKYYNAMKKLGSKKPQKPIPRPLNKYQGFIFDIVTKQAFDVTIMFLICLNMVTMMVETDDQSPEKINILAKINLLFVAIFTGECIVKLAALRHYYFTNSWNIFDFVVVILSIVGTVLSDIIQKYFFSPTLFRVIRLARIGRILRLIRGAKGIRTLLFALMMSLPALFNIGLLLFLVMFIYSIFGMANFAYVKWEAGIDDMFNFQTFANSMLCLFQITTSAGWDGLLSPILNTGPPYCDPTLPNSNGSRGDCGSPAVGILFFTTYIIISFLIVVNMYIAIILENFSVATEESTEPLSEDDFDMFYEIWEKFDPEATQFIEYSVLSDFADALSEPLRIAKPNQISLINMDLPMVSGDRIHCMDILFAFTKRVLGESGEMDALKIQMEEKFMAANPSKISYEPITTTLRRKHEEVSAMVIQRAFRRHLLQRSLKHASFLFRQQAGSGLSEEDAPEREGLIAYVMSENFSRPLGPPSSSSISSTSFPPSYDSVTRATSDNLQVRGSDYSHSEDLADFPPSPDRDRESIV

With `CC1CC=C(c2ccc(=O)n(CC(=O)Nc3cccc4nccn34)n2)CC1` (racemic) [Example 255] as the molecule, how does the “Nav1.1 current amplification rate (%)” value [1, 3] read?
Its value is 32%.

And the “Nav1.5 current amplification rate (%)” value [2, 4]?
The value was 15%.

Which results are given for `COc1cc(=O)n(CC(=O)N2CCc3c(N4CCOCC4)cccc32)nc1C1=CCC(C(F)(F)F)CC1` (racemic) [Example 476]?
Nav1.1 current amplification rate (%) [1, 3]: 343%; Nav1.5 current amplification rate (%) [2, 4]: 13%

How did the “Nav1.1 current amplification rate (%)” value [1, 5] turn out when `Cc1cc(NC(=O)Cn2nc(C3=CCC(C)CC3)ccc2=O)cn2ncnc12` (racemic) [Example 349] was run?
Its value is 101%.

And the “Nav1.5 current amplification rate (%)” value [2, 6]?
The value was 24%.

Which results are given for `C[C@@H]1CC=C(c2ccc(=O)n(CC(=O)Nc3ccn4ncnc4c3)n2)CC1` [Example 537, 2-{3-[(4S)-4-methylcyclohex-1-en-1-yl]-6-oxopyridazin-1(6H)-yl}-N-([1,2,4]triazolo[1,5-a]pyridin-7-yl)acetamide]?
activation at 1 µM [1, 7]: 99%; activation at 1 µM [2, 8]: 29%

Which “Nav1.1 current amplification rate (%)” value [1, 9] does the source give for `CC1CC=C(c2ccc(=O)n(CC(=O)N3CCc4c(C5CN(C(=O)CO)C5)cccc43)n2)CC1` (racemic) [Example 321] here?
The value was 478%.

And the “Nav1.5 current amplification rate (%)” value [2, 10]?
The value was 330%.

`Cc1cc(=O)n(CC(=O)Nc2ccc3ocnc3c2)nc1N1CCC2(CCC2)C1` [Example 205] was tested. Which activation at 10 µM [1, 11] did it give?
Its activation at 10 µM is 235%.

And the activation at 10 µM [2, 12]?
The activation at 10 µM was 20%.

Which activation at 10 µM [1, 11] does the source give for `CN(C)c1cc(=O)n(CC(=O)Nc2ccc3ocnc3c2)nc1N1CCC2(CCCC2)C1` [Example 197] here?
Its activation at 10 µM is 318%.

What about the activation at 10 µM [2, 12] of the same molecule?
Its activation at 10 µM is 56%.

How did the “Nav1.1 current amplification rate (%)” value [1, 3] turn out when `CC1(C)CC=C(c2ccc(=O)n(CC(=O)N3CCN(c4ccccn4)CC3)n2)CC1` [Example 439] was run?
The value was 87%.

And the “Nav1.5 current amplification rate (%)” value [2, 4]?
Its value is −4%.

How did the activation at 10 µM [1, 11] turn out when `CN1CCN(c2cccc3c2CCN3C(=O)Cn2nc(N3CCC(C)(C)CC3)ccc2=O)CC1` [Example 223] was run?
The activation at 10 µM was 46%.

What about the activation at 10 µM [2, 12] of the same molecule?
Its activation at 10 µM is 0%.

`O=C(Cn1nc(N2CCC3C(C2)C3(F)F)ccc1=O)Nc1ccc2ocnc2c1` (centres unmarked) [Example 161] was tested. Which activation at 10 µM [1, 11] did it give?
Its activation at 10 µM is 21%.

And the activation at 10 µM [2, 12]?
Its activation at 10 µM is -1%.

Which “Nav1.1 current amplification rate (%)” value [1, 3] does the source give for `Cc1noc2cc(NC(=O)Cn3nc(C4=CCC(C)CC4)ccc3=O)ccc12` (racemic) [Example 240] here?
The value was 241%.

And the “Nav1.5 current amplification rate (%)” value [2, 4]?
Its value is 174%.

For `O=C(Cn1nc(N2CCC3(CCC3)C2)ccc1=O)Nc1ccc2ocnc2c1` [Example 131], which activation at 10 µM [1, 11] is on record?
The activation at 10 µM was 227%.

And the activation at 10 µM [2, 12]?
Its activation at 10 µM is 7%.

Which “Nav1.1 current amplification rate (%)” value [1, 5] does the source give for `CC1CC=C(c2ccc(=O)n(CC(=O)N3CCc4c3ccnc4N3CCOCC3)n2)CC1` (racemic) [Example 319] here?
The value was 134%.

And the “Nav1.5 current amplification rate (%)” value [2, 6]?
The value was 30%.

How did the activation at 10 µM [1, 11] turn out when `Cc1cc(=O)n(CC(=O)Nc2ccc3ocnc3c2)nc1N1CCC2(CCCC2)C1` [Example 194] was run?
The activation at 10 µM was 252%.

What about the activation at 10 µM [2, 12] of the same molecule?
The activation at 10 µM was 33%.

Which results are given for `CC1CC=C(c2ccc(=O)n(CC(=O)N3CCc4c(-c5cccnc5)cccc43)n2)CC1` (racemic) [Example 248]?
Nav1.1 current amplification rate (%) [1, 9]: 392%; Nav1.5 current amplification rate (%) [2, 10]: 44%

How did the activation at 3 µM ([1]; compound 3 μmol/L, HEK293 stably expressing human Nav1.1, read-out: Nav1.1 current amplification rate (%)) turn out when `O=C(Cn1nc(N2CCC3(CCC3)C2)ccc1=O)Nc1ccc2c(c1)OCCO2` [Example 191] was run?
Its activation at 3 µM is 52%.

What about the activation at 3 µM ([2]; compound 3 μmol/L, CHO-K1 stably expressing human Nav1.5, read-out: Nav1.5 current amplification rate (%)) of the same molecule?
Its activation at 3 µM is 2%.

`COc1cc(C2=CCC(C)CC2)nn(CC(=O)Nc2ccc3ocnc3c2)c1=O` (centres unmarked) [Example 449] was tested. Which “Nav1.1 current amplification rate (%)” value [1, 3] did it give?
Its value is 250%.

And the “Nav1.5 current amplification rate (%)” value [2, 4]?
Its value is 12%.

For `CC1CCN(c2ccc(=O)n(CC(=O)N3CCc4c(N5CCOCC5)cccc43)n2)CC1` [Example 218], which activation at 1 µM [1, 7] is on record?
The activation at 1 µM was 155%.

And the activation at 1 µM [2, 8]?
Its activation at 1 µM is 9%.

`CC1CC=C(c2ccc(=O)n(CC(=O)N3CCc4c(CN5CCCC5)cccc43)n2)CC1` (racemic) [Example 271] was tested. Which “Nav1.1 current amplification rate (%)” value [1, 9] did it give?
The value was 48%.

What about the “Nav1.5 current amplification rate (%)” value [2, 10] of the same molecule?
Its value is 70%.

How did the “Nav1.1 current amplification rate (%)” value [1, 9] turn out when `CC1CC=C(c2ccc(=O)n(CC(=O)N3CCN(c4ccccc4)CC3)n2)CC1` (racemic) [Example 258] was run?
The value was 79%.

And the “Nav1.5 current amplification rate (%)” value [2, 10]?
Its value is 4%.

Which activation at 10 µM [1, 11] does the source give for `O=C(Cn1nc(N2CCC3(CCCC3)C2)cc(N2CCCC2)c1=O)Nc1ccc2ocnc2c1` [Example 206] here?
The activation at 10 µM was 154%.

And the activation at 10 µM [2, 12]?
The activation at 10 µM was 33%.

Which activation at 10 µM [1, 11] does the source give for `Cc1cc(=O)n(CC(=O)Nc2ccc3ocnc3c2)nc1N1CCC(C)CC1` [Example 201] here?
The activation at 10 µM was 139%.

And the activation at 10 µM [2, 12]?
The activation at 10 µM was 1%.
